Values of other authors in patent publication US6645994B1, “Method of treating dry eye disorders” (Alcon, Inc., priority 2001, dated 2003).

Key:
acyl-CoA synthetase = conditions: compared with triacsins A, B and C
mucin subtype MUC1 = conditions: literature report, Cornea 2000
[1] = test system: soluble goblet cell mucins (MUC2, MUC5AC); conditions: literature report, Cornea 2000

CC/C=C/C=C/C=C/C=C/C=NN=NO [Triacsin C, 1-hydroxy-3-(E,E,E,E-2′4′6′8′-undecatetraenylidine) triazene]
relative potency as acyl-CoA synthetase inhibitor among triacsins (acyl-CoA synthetase): most potent of these compounds

CCCCC[C@H](O)/C=C/C=C\C/C=C\C/C=C\CCCC(=O)O [15(S)-HETE]
secretion of mucin subtype MUC1 (mucin subtype MUC1): effective secretagogue
secretion of soluble goblet cell mucins (MUC2, MUC5AC) [1]: inability of 15(S)-HETE to stimulate secretion
